According to patent US20210063391A1, “METHODS AND SYSTEMS FOR BIOCELLULAR MARKER DETECTION AND DIAGNOSIS USING A MICROFLUIDIC PROFILING DEVICE” (The Regents of the University of Michigan, priority 2018, published 2021):

What was measured:
[1] = system: Stat1/3; assay: Inflammation signature quantification of treated PBMC lysates by microfluidic immunoblotting (p-Stat1, p-Stat3); format: cell-based
From the text: An exemplary procedure for immunoblotting with a device of the present disclosure is as follows. A protein-containing sample is loaded into the wells of a gel (e.g., polyacrylamide gel) and proteins present in the sample are separated by gel electrophoresis (e.g., native gel electrophoresis, SDS-PAGE, etc.). A membrane (e.g., PVDF membrane) is placed atop the gel to allow transfer of the proteins onto the membrane. The membrane is then placed on a glass slide. A microfluidic device is placed on top of membrane, and the microfluidic channels are aligned with the protein lanes. Blocking buffer (e.g., Tween-20 and BSA) is optionally injected in each of the channels. In embodiments with a blocking step, the inlets/outlets of the channels are covered (e.g., with tape) to minimize evaporation during incubation. Antibodies are injected into the appropriate channels (e.g., different antibodies in each microchannel of a set). The inlets/outlets are covered (e.g., with tape) to minimize evaporation during incubation. Following incubation (e.g., 1 hours), the microfluidic device is removed, and the membrane is transferred to a solution of an appropriate secondary antibody (e.g., the membrane is left in this solution for 1 hour, or until the membrane is completely wet). The membrane is removed from the secondary antibody solution and washed with fresh blocking buffer (e.g., 3 minutes, 5 times each). The membrane is transferred to a developing solution (e.g., 30 minutes), and the membrane is removed and rinsed with DI water. The membrane is then allowed to dry. […]
(§1) FIGS. 2A-2B include representative graphs of inflammation signature quantification for PBMC lysates treated with LPS, Heparinase III and LPS+Heparinase III for 2 hours, according to one embodiment of the present disclosure. […]
(§2) FIGS. 3A-3B include representative graphs of inflammation signature quantification for PBMC lysates treated with Hyaluronidase (Hyal), Neuraminidase (Neu) and Spironolactone for 2 hours, according to one embodiment of the present disclosure. […]

[2] = system: p65; assay: Inflammation signature quantification of treated PBMC lysates by microfluidic immunoblotting (p-p65); format: cell-based; conditions: PBMCs treated 2 hours
From the text: An exemplary procedure for immunoblotting with a device of the present disclosure is as follows. A protein-containing sample is loaded into the wells of a gel (e.g., polyacrylamide gel) and proteins present in the sample are separated by gel electrophoresis (e.g., native gel electrophoresis, SDS-PAGE, etc.). A membrane (e.g., PVDF membrane) is placed atop the gel to allow transfer of the proteins onto the membrane. The membrane is then placed on a glass slide. A microfluidic device is placed on top of membrane, and the microfluidic channels are aligned with the protein lanes. Blocking buffer (e.g., Tween-20 and BSA) is optionally injected in each of the channels. In embodiments with a blocking step, the inlets/outlets of the channels are covered (e.g., with tape) to minimize evaporation during incubation. Antibodies are injected into the appropriate channels (e.g., different antibodies in each microchannel of a set). […]
as §1, §2

Row | Substance | activation of Stat1/3 ([1]; PBMCs treated 2 hours, 1.5 U/mL Heparinase III, compared with 1 μg/ml LPS) | effect on LPS Stat1/3 response ([1]; PBMCs, 2 hours, Heparinase III 1.5 U/mL together with LPS 1 μg/ml) | p65 activation ([2]; 1.5 U/mL Heparinase III and/or 1 μg/ml LPS) | Stat1/3 activation ([1]; PBMCs treated 2 hours, 0.25 U/mL Neuraminidase vs 2 U/mL Hyaluronidase and 100 μM Spironolactone) | p65 activation ([2]; 0.25 U/mL Neuraminidase vs 2 U/mL Hyaluronidase and 100 μM Spironolactone)
1 | Heparinase III | leads to activation of Stat1/3, although not as much as LPS | attenuates LPS Stat1/3 response when done together | increases p65 activation though similar to LPS response | – | –
2 | Neuraminidase | – | – | – | increases Stat1/3 and p65 activation as compare to Hyal and Spiro | increases Stat1/3 and p65 activation as compare to Hyal and Spiro
